{
  "source": "patent US4337760A",
  "about": "“Method for the treatment of tumors with β-glucuronidase activity dependent pharmaceuticals” (Schwimmer; Adolf, priority 1979, dated 1982)",
  "key": {"β-glucuronidase [1]": {"system": "β-glucuronidase", "test": "Incubation with β-glucuronidase", "assay_type": "biochemical", "method": "The free acid form of the compound was formed by treating the 2,4-dinitrophenyl-methyl(tri-O-acetyl-β-D-glucopyranosyl bromide)-uronate with a one-half molar amount of barium hydroxide to produce the barium salt. This barium salt of the glucuronide precipitates as a white amorphous material. An equimolar solution of H2 SO4 releases the free glucuronide. Distillation of the supernatant yielded bright yellow-brown crystals having a melting point of 179°-180° C."}, "[2]": {"settings": "alkaline vs acid pH; cited from earlier work"}, "β-glucuronidase [3]": {"system": "β-glucuronidase", "settings": "cited from earlier work"}, "[4]": {"settings": "in vivo; cited from earlier work"}, "[5]": {"test": "Acute intravenous toxicity to rabbits, full scale test", "assay_type": "in vivo, NZW rabbits", "settings": "for acute median lethal intravenous dose (LD 50): 10% solution, 95% confidence limits, method of Weil", "method": "(§1) NZW rabbits in the weight range of 2,000 to 3,200 g for females and 2,200 to 3,800 g for males were injected intravenously with mandelonitrile β-D-glucuronic acid solution. Rabbits injected with saline alone served as the control. The mandelonitrile β-D-glucuronic acid solution contained 10% mandelonitrile.\n(§2) During the 14 day observation period a record was kept of all mortalities and signs of toxicity.\nDosing was then extended to larger groups of rabbits (5 males and 5 females per group) in order to locate the median lethal dose more precisely.\nAll the deaths of all the groups occurred within 3 hours after dosing.\nThe acute median lethal intravenous dose (LD 50) and its 95% confidence limints calculated by the method of Weil, C. S., 1952, Biometrics, 8:249, to rabbits of mandelonitrile-β-D-glucuronic acid 10% solution are calculated to be: […]"}, "[6]": {"test": "Acute intravenous toxicity to rabbits, range finding screen", "assay_type": "in vivo, NZW rabbits", "settings": "i.v.; for Mortality ratio: 14 day observation", "method": "as §1, §2"}, "trophoblastic cells": {"system": "trophoblastic cells", "settings": "reported; cited from earlier work"}},
  "data": [
    {"compound": "O=C(O)[C@H]1O[C@@H](Oc2ccc([N+](=O)[O-])cc2[N+](=O)[O-])[C@H](O)[C@@H](O)[C@@H]1O", "note": "[2,4-dinitrophenol-β-D-glucuronic acid]", "values": [
      {"measurement": "product on incubation with β-glucuronidase", "setting": "β-glucuronidase [1]", "value": "produced 2,4-dinitrophenol"}
    ]},
    {"compound": "Cc1cc(O)cc(C)c1Cl", "note": "[4-chloro-3,5-xylanol]", "values": [
      {"measurement": "pH-dependent solubility", "setting": "[2]", "value": "water soluble at alkaline pH's and lipid-soluble at acid pH's"}
    ]},
    {"compound": "N#C[C@H](O[C@@H]1O[C@H](CO[C@@H]2O[C@H](CO)[C@@H](O)[C@H](O)[C@H]2O)[C@@H](O)[C@H](O)[C@H]1O)c1ccccc1", "note": "[amygdalin]", "values": [
      {"measurement": "splitting by the enzyme β-glucuronidase", "setting": "β-glucuronidase [3]", "value": "cannot be split"}
    ]},
    {"compound": "Neomycin", "values": [
      {"measurement": "known adverse effect", "setting": "[4]", "value": "cannot be administered internally because of its toxicity"}
    ]},
    {"compound": "N#CC(O[C@@H]1O[C@H](C(=O)O)[C@@H](O)[C@H](O)[C@H]1O)c1ccccc1", "note": "(stereo partly drawn) [mandelonitrile β-D-glucuronic acid, Mandelonitrile β-D-glucuronic acid]", "values": [
      {"measurement": "Time of all the deaths of all the groups after dosing", "setting": "[5]; all groups, i.v.", "value": "≤ 3", "unit": "h"},
      {"measurement": "maximum safe dose", "setting": "[5]; believed, from the rabbit data", "value": "~0.44", "unit": "ml/kg body weight"},
      {"measurement": "acute median lethal intravenous dose (LD 50)", "setting": "[5]; females", "value": "0.6873 (0.6442-0.7304) ml/kg body weight"},
      {"measurement": "Mortality ratio", "setting": "[5]; females, i.v., 0.44 ml/kg", "value": "0/5"},
      {"measurement": "Mortality ratio", "setting": "[5]; females, i.v., 0.66 ml/kg", "value": "2/5"},
      {"measurement": "Time of death after dosing: No of hours", "setting": "[5]; females, i.v., 0.66 ml/kg", "value": "< 3", "unit": "h"},
      {"measurement": "Time of death after dosing: No. of animals", "setting": "[5]; females, i.v., 0.66 ml/kg", "value": 2, "unit": "animals"},
      {"measurement": "Mortality ratio", "setting": "[5]; females, i.v., 1.0 ml/kg", "value": "5/5"},
      {"measurement": "Time of death after dosing: No of hours", "setting": "[5]; females, i.v., 1.0 ml/kg", "value": "< 3", "unit": "h"},
      {"measurement": "Time of death after dosing: No. of animals", "setting": "[5]; females, i.v., 1.0 ml/kg", "value": 5, "unit": "animals"},
      {"measurement": "Mortality ratio", "setting": "[5]; females, i.v., 1.5 ml/kg", "value": "5/5"},
      {"measurement": "Time of death after dosing: No of hours", "setting": "[5]; females, i.v., 1.5 ml/kg", "value": "< 3", "unit": "h"},
      {"measurement": "Time of death after dosing: No. of animals", "setting": "[5]; females, i.v., 1.5 ml/kg", "value": 5, "unit": "animals"},
      {"measurement": "Mortality ratio", "setting": "[5]; females, i.v., 2.25 ml/kg", "value": "5/5"},
      {"measurement": "Time of death after dosing: No of hours", "setting": "[5]; females, i.v., 2.25 ml/kg", "value": "< 3", "unit": "h"},
      {"measurement": "Time of death after dosing: No. of animals", "setting": "[5]; females, i.v., 2.25 ml/kg", "value": 5, "unit": "animals"},
      {"measurement": "Clinical symptoms of surviving animals", "setting": "[5]; following 14 days", "value": "did not show any clinical symptoms"},
      {"measurement": "Autopsy of all animals", "setting": "[5]; gross pathology", "value": "did not show clear gross pathological changes"},
      {"measurement": "acute median lethal intravenous dose (LD 50)", "setting": "[5]; males", "value": "0.8419 (0.7809-0.9029) ml/kg body weight"},
      {"measurement": "Mortality ratio", "setting": "[5]; males, i.v., 0.44 ml/kg", "value": "0/5"},
      {"measurement": "Mortality ratio", "setting": "[5]; males, i.v., 0.66 ml/kg", "value": "2/5"},
      {"measurement": "Time of death after dosing: No of hours", "setting": "[5]; males, i.v., 0.66 ml/kg", "value": "< 3", "unit": "h"},
      {"measurement": "Time of death after dosing: No. of animals", "setting": "[5]; males, i.v., 0.66 ml/kg", "value": 2, "unit": "animals"},
      {"measurement": "Mortality ratio", "setting": "[5]; males, i.v., 1.0 ml/kg", "value": "3/5"},
      {"measurement": "Time of death after dosing: No of hours", "setting": "[5]; males, i.v., 1.0 ml/kg", "value": "< 3", "unit": "h"},
      {"measurement": "Time of death after dosing: No. of animals", "setting": "[5]; males, i.v., 1.0 ml/kg", "value": 3, "unit": "animals"},
      {"measurement": "Mortality ratio", "setting": "[5]; males, i.v., 1.5 ml/kg", "value": "4/5"},
      {"measurement": "Time of death after dosing: No of hours", "setting": "[5]; males, i.v., 1.5 ml/kg", "value": "< 3", "unit": "h"},
      {"measurement": "Time of death after dosing: No. of animals", "setting": "[5]; males, i.v., 1.5 ml/kg", "value": 4, "unit": "animals"},
      {"measurement": "Mortality ratio", "setting": "[5]; males, i.v., 2.25 ml/kg", "value": "5/5"},
      {"measurement": "Time of death after dosing: No of hours", "setting": "[5]; males, i.v., 2.25 ml/kg", "value": "< 3", "unit": "h"},
      {"measurement": "Time of death after dosing: No. of animals", "setting": "[5]; males, i.v., 2.25 ml/kg", "value": 5, "unit": "animals"},
      {"measurement": "Signs of reaction to treatment", "setting": "[5]; observed 2 minutes after dosing, i.v.", "value": "ataxia and paralysis"},
      {"measurement": "Early deaths", "setting": "[5]; two minutes after the signs of reaction, high dose group", "value": "a few animals of the high dose group died"},
      {"measurement": "Mortality ratio", "setting": "[6]; 0.25 ml/kg", "value": "0/2"},
      {"measurement": "Mortality ratio", "setting": "[6]; 0.5 ml/kg", "value": "1/2"},
      {"measurement": "Mortality ratio", "setting": "[6]; 1.0 ml/kg", "value": "2/2"},
      {"measurement": "Mortality ratio", "setting": "[6]; 2.0 ml/kg", "value": "2/2"},
      {"measurement": "Mortality ratio", "setting": "[6]; 4.0 ml/kg", "value": "2/2"},
      {"measurement": "median lethal intravenous dose (LD-50)", "setting": "[6]; rabbits, preliminary range finding", "value": "0.23-2 ml per kg body weight"}
    ]},
    {"compound": "C[C@]12CC[C@H]3[C@@H](CCC4=CC(=O)CC[C@@]43C)[C@@H]1CC[C@@H]2O", "note": "[testosterone]", "values": [
      {"measurement": "β-glucuronidase activity in trophoblastic cells", "setting": "trophoblastic cells", "value": "induce β-glucuronidase activity"}
    ]},
    {"compound": "Oc1c(I)cc(Cl)c2cccnc12", "note": "[5-chloro-7-iodo-8-quinolinol]", "values": [
      {"measurement": "pH-dependent solubility", "setting": "[2]", "value": "water soluble at alkaline pH's and lipid-soluble at acid pH's"}
    ]}
  ]
}
